In patent US20060067942A1, “Pharmaceutical agent comprising amino acids, peptides, proteins and/or fractions and fragments thereof and the use of same in the prophylaxis and treatment of immune system deficiency in humans and animals” (priority 2004, published 2006):
Where “and” joins values, the source holds several entries; their conditions need not be identical. Equal entries are not always repeated.

Key:
T-lymphocytes = assay: E-rosette test in immunosuppressed guinea pigs; format: in vivo, guinea pig
Source text: Guinea pig's T-lymphocytes bind rabbits erythrocytes on their surface, this ability is used to observe the dynamics of changes in the number of T-lymphocytes. The number of the human T-lymphocytes is one of the parameters of evaluation of cellular immunity in the clinical immunology. […] The first step was to determine the number of T-lymphocytes by using the E-rosette assay in the 8 Guinea pigs in the weight range 260-310 g. The second step was to decrease the number of T-lymphocytes. This was done using the immunosuppressant Azathioprin. The application of this is per os for 7 of the guinea pigs. The 8th guinea pig will be used as a control without application of the immunosuppressant. The second determination of the T-lymphocytes followed 7 days after the application of the immunosuppressant. […] One of the suppressed guinea pigs was used as a control suppressed animal.
The level of E-rosettes was determined on the first day from the blood of 12 experimental guinea pigs. On the second day, 8 animals (group A) were treated i.p. with oxoplatin as an anti-tumor agent and 3 animals (group B) were treated with double the dose of oxoplatin. The final guinea pig was used as a control. The level of E-rosettes was determined 5 days later.
The level of the E-rosettes in 3 guinea pigs with low values of E-rosettes was determined again at day 35.
The level of E-rosettes in 9 experimental guinea pigs was determined on the 1st day. On the second day 8 animals were injected with Campto and one was without application. The level of E-rosettes in all guinea pigs was determined on the 7th day of experiment. […] On day 22 of the experiment one guinea pig had E-rosette production determined. The level of E-rosettes was then determined again in all animals on day 29.
The level of E-rosettes in 9 experimental guinea pigs was determined on the first day. On the second day, 8 guinea pigs were injected with Taxol. The level of E-rosettes was determined again on the 7th day of experimentation. […] The level of E-rosettes in all guinea pigs was determined on the 29th day.
The level of the E-rosettes in 10 experimental guinea pigs was determined on the first day. On the second day, 9 guinea pigs were injected with Eloxatin. The level of E-rosettes were determined on the 7th day of experimentation. […] The final level of E-rosettes was then determined on the 30th day of experimentation.

CD4+ T lymphocytes = assay: Intracellular staining for IFNg and CD69 expression on CD4+ lymphocytes in whole blood; format: cell-based, human; conditions: for % CD69+ cells / % CD69+/IFNg+ cells: CD4+ lymphocytes, 0.5 ml blood + 50 μg preparation or 10 μg PHA
Experimental: Briefly, whole peripheral blood was collected into sodium heparin. […] Addition of 10 μl Brefeldin A (Sigma, 10 μg/ml) to all tubes. Incubation for new 4 hours at 37° C., 5% CO2. Brefeldin A is an agent which arrest produced cytokine intracellular. Surface and intracellular staining for T-lymphocytes was performed according to the manufacturer rules with monoclonal antibodies against CD3, CD4, CD69 and IFNg from FastImmune CD4 Intracellular Cytokine Detection kit (BD). Red blood cells were lysed with FACS Lysing solution for 10 min. at room temperature. Permeabilization of lymphocytes was achieved using FACS Permeabilizing solution (BD) for 10 min. The activation and intracellular cytokine expression was evaluated by the staining with CD4/CD69/IGNg monoclonal antibodies

human PBMC = assay: Lymphocyte proliferation in vitro (Stimulation index, Thymidine uptake); format: cell-based; conditions: PHA positive control
Experimental: T-lymphocyte activation can be assessed directly by: • a) De novo expression or increase of activation markers such as CD69 on T lymphocytes (CD69+/CD4+ cells) after 4 hours activation • b) Measuring blastogenesis and/or proliferation of cells to phytomitogens (such as Phytohemagglutinin, PHA), common antigens or other substances evaluated 72 hours after activation • c) Antigen-induced release of cytokines (in this case the preparation-induced intra-cellular expression of IFNg in CD4+ T lymphocytes) Methods
Heparinized venous blood from 5 healthy volunteers (women, aged 35-52 years) has been used for the performance of the following investigations:
In vitro proliferation of PBMC from 5 healthy individuals is presented as Stimulation index in Table 2. The PHA-induced proliferation, used here as a positive control, verified good culturing conditions, as it is shown mean proliferation index 184.5±142.8 at 72 hours. As it is expected, at 6 day SI of PHA stimulation is dropping (it is a mitogen), but the cell cultures were intact.
That is why we tested it's stimulation activity at 3 days and 6 days activation period.

In the case of `CCc1c2c(nc3ccc(OC(=O)N4CCC(N5CCCCC5)CC4)cc13)-c1cc3c(c(=O)n1C2)COC(=O)[C@]3(O)CC` [Campto], the “decrease of production of E-rosettes after application of Campto” value (T-lymphocytes; Experiment 2, injected day 2, determined 7th day) is reported as 22.7%.
For `O=C1[O][Pt]2([NH][C@@H]3CCCC[C@H]3[NH]2)[O]C1=O` [Eloxatin], the “decrease of formation of E-rosettes after application of Eloxatin” value (T-lymphocytes; Experiment 4, injected day 2, determined 7th day) was 22%.
With `CC(=O)O[C@H]1C(=O)[C@@]2(C)[C@H]([C@H](OC(=O)c3ccccc3)[C@]3(O)C[C@H](OC(=O)[C@H](O)[C@@H](NC(=O)c4ccccc4)c4ccccc4)C(C)=C1C3(C)C)[C@]1(OC(C)=O)CO[C@@H]1C[C@@H]2O` [Taxol] the “decrease of production of E-rosettes after application of Taxol” value (T-lymphocytes; Experiment 3, injected day 2, determined 7th day) was 16%.
For `N.N.[Cl-].[Cl-].[OH-].[OH-].[Pt+4]` [oxoplatin], the “decrease of production of E-rosettes after application of oxoplatin” value (T-lymphocytes; Experiment 1, i.p., determined 5 days later) was 27.4%.
For Phytohemagglutinin [PHA], the “% CD69+ cells” value (CD4+ T lymphocytes; Mean of 6 donors) was 83.54%, the “% CD69+/IFNg+ cells” value (CD4+ T lymphocytes; Mean of 6 donors) was 4.97±5.75% and 4.97% and the “PHA induced % CD69+ cells” value (CD4+ T lymphocytes; after 4 hours stimulation, healthy individuals) was “over 80%”. For the same compound, the “% CD69+ cells” value (CD4+ T lymphocytes; donor five) was 78.46%, the “% CD69+/IFNg+ cells” value (CD4+ T lymphocytes; donor five) was 2.45% and the “% CD69+ cells” value (CD4+ T lymphocytes; donor four) was 87.87%. The “% CD69+/IFNg+ cells” value (CD4+ T lymphocytes; donor four) was 2.87%, the “% CD69+ cells” value (CD4+ T lymphocytes; donor one) was 89.58% and the “% CD69+/IFNg+ cells” value (CD4+ T lymphocytes; donor one) was 0.49%. The “% CD69+ cells” value (CD4+ T lymphocytes; donor six) was 90.03%, the “% CD69+/IFNg+ cells” value (CD4+ T lymphocytes; donor six) was 16.42% and the “% CD69+ cells” value (CD4+ T lymphocytes; donor three) was 86.39%. The “% CD69+/IFNg+ cells” value (CD4+ T lymphocytes; donor three) was 4.39%, the “% CD69+ cells” value (CD4+ T lymphocytes; donor two) was 68.91% and the “% CD69+/IFNg+ cells” value (CD4+ T lymphocytes; donor two) was 3.18%. The “Stimulation index (PBMC proliferation)” value (human PBMC; Mean of donors, 3 days (72 hours)) was 184.5±142.8, the “Stimulation index (PBMC proliferation)” value (human PBMC; Mean of donors, 3 days (72 hours), listed as PHA(+)) was 184.33 and the “Stimulation index (PBMC proliferation)” value (human PBMC; Mean of donors, 6 days) was 51.97. The “Stimulation index (PBMC proliferation)” value (human PBMC; donor four, 3 days) was 77.3, the “Stimulation index (PBMC proliferation)” value (human PBMC; donor four, 6 days) was 61.09 and the “Stimulation index (PBMC proliferation)” value (human PBMC; donor one, 3 days) was 417. For the same compound, the “Stimulation index (PBMC proliferation)” value (human PBMC; donor one, 6 days) was 33, the “Stimulation index (PBMC proliferation)” value (human PBMC; donor six, 3 days) was 114.65 and the “Stimulation index (PBMC proliferation)” value (human PBMC; donor six, 6 days) was 25.11. For the same compound, the “Stimulation index (PBMC proliferation)” value (human PBMC; donor three, 3 days) was 87.38, the “Stimulation index (PBMC proliferation)” value (human PBMC; donor three, 6 days) was 119.9 and the “Stimulation index (PBMC proliferation)” value (human PBMC; donor two, 3 days) was 225.3. The “Stimulation index (PBMC proliferation)” value (human PBMC; donor two, 6 days) was 20.74.
